{
  "source": "patent US20080031912A1",
  "about": "“METHOD FOR CONTROLLING CELL MIGRATION ON A SURFACE” (THE REGENTS OF THE UNIVERSITY OF CALIFORNIA, priority 2006, published 2008)",
  "key": {"NIH 3T3 cells [1]": {"test_system": "NIH 3T3 cells", "assay": "Cell spreading on coated tissue culture dishes (time-lapse microscopy)", "type": "cell-based", "conditions": "surface coated with 1 μg/cm2; observed over 8 hours (3, 6, 8 hours post-plating)", "procedure": "(§1) Cell Culture. NIH 3T3 cells were cultured in DMEM supplemented with 10% calf serum, 1% sodium pyruvate, 1% L-glutamine, 1% penicillin/streptomycin, and maintained in a humidified 5% CO2/95% air incubator at 37° C. Wildtype and pik3R2^−/− MEF cell lines were maintained in DMEM supplemented with 15% FBS and 1% penicillin/streptomycin, and maintained in a humidified 5% CO2, 95% air incubator at 37° C.\n(§2) Imaging. NIH 3T3 cells were maintained in complete media (described above) for all experiments. Imaging was done on a Nikon Diaphot 300 inverted microscope with a Hamamatsu Orca ER digital camera controlled by IP lab software (Scanalytics). Images were captured under 10× and 20× phase-contrast microscopy. The cells were under temperature and gas control throughout the duration of the experiments (5% CO2, 95% air, 37° C.). MEF cells were maintained in complete media for all experiments. Imaging was done on a Nikon Diaphot 300 inverted microscope with a Hamamatsu Orca ER digital camera controlled by IP lab, or Metamorph imaging software. Images were captured under 20× and 40× differential interference microscopy (DIC), or fluorescence microscopy. The cells were under temperature and gas control throughout the duration of live cell imaging experiments (5% CO2, 95% air, 37° C.). […]"}, "NIH 3T3 cells [2]": {"test_system": "NIH 3T3 cells", "assay": "Cell migration onto coated half of tissue culture dish", "type": "cell-based", "conditions": "right half of dish coated with 1 μg/cm^2 of each protein; cells seeded on uncoated half, 7 days", "procedure": "as §1, §2"}},
  "data": [
    {"substance": "fibronectin [FN]", "values": [
      {"measurement": "cell spreading on coated surface", "setting": "NIH 3T3 cells [1]", "result": "spread efficiently"},
      {"measurement": "cell migration onto coated surface", "setting": "NIH 3T3 cells [2]", "result": "robust migration"}
    ]}
  ]
}
